Source: ChEMBL document CHEMBL5360558, “Molecular design, synthesis and anticancer activity of new thiopyrano[2,3-d]thiazoles based on 5-hydroxy-1,4-naphthoquinone (juglone)” (Eur J Med Chem, 2023)
Calls of active or inactive are those of the source. The rule behind the calls is not given here.

Experiments:
[1] = test system: LOX IMVI; assay: Growth inhibition of human LOX IMVI cells incubated for 48 hrs by sulforhodamine B spectrophotometric assay; type: functional
[2] = test system: Hs-578T; assay: Growth inhibition against human Hs-578T cells assessed as lethal concentration incubated for 48 hrs by sulforhodamine B spectrophotometric assay; type: functional; conditions: read-out: LC50 (the source's name)
[3] = test system: CCRF-CEM; assay: Induction of cell cycle arrest in human CCRF-CEM cells assessed as RNA synthesis at 4.14 uM incubated for 3 hrs by […] incorporation based flow cytometry analysis (reference value: 31.8 +/- 1.17%); type: functional
[4] = Antileukemic activity against human CLL cell assessed as cell growth inhibition incubated for 72 hrs during remission period by MTT assay; type: functional, cell-based
[5] = test system: DU-145; assay: Growth inhibition against human DU-145 cells assessed as lethal concentration incubated for 48 hrs by sulforhodamine B spectrophotometric assay; type: functional; conditions: read-out: LC50 (the source's name)
[6] = test system: SNB-19; assay: Growth inhibition against human SNB-19 cells assessed as lethal concentration incubated for 48 hrs by sulforhodamine B spectrophotometric assay; type: functional; conditions: read-out: LC50 (the source's name)
[7] = test system: DU-145; assay: Anticancer activity against human DU-145 cells assessed as cell growth at 10 uM incubated for 48 hrs by sulforhodamine B assay; type: functional; conditions: read-out: Activity
[8] = test system: Salmon testes DNA; assay: Displacement of methyl green from salmon sperm DNA assessed as DNA intercalation at 10 uM incubated for 24 hrs by fluorescence plate reader method relative to control; type: nucleic-acid assay; conditions: Salmo salar
[9] = test system: MDA-MB-231; assay: Induction of apoptosis in human MDA-MB-231 cells assessed as increase in caspase-9 level at 10 uM incubated for 24 hrs by flow cytometry analysis; type: functional
[10] = Acute toxicity in C57BL/6 mouse assessed as neutrophil count at 20 mg/kg,ip administration and observed after 22 days; type: organism-based; conditions: in vivo, 528 h, time 22 day
[11] = test system: SR; assay: Growth inhibition against human SR cells assessed as lethal concentration incubated for 48 hrs by sulforhodamine B spectrophotometric assay; type: functional; conditions: read-out: LC50 (the source's name)
[12] = test system: SK-MEL-5; assay: Growth inhibition of human SK-MEL-5 cells incubated for 48 hrs by sulforhodamine B spectrophotometric assay; type: functional
[13] = test system: MOLT-4; assay: Growth inhibition against human MOLT-4 cells assessed as lethal concentration incubated for 48 hrs by sulforhodamine B spectrophotometric assay; type: functional; conditions: read-out: LC50 (the source's name)
[14] = test system: OVCAR-8; assay: Growth inhibition against human OVCAR-8 cells assessed as total growth inhibitory concentration incubated for 48 hrs by sulforhodamine B spectrophotometric assay; type: functional
[15] = test system: HCT-15; assay: Growth inhibition against human HCT-15 cells assessed as total growth inhibitory concentration incubated for 48 hrs by sulforhodamine B spectrophotometric assay; type: functional
[16] = test system: Hs-578T; assay: Growth inhibition against human Hs-578T cells assessed as total growth inhibitory concentration incubated for 48 hrs by sulforhodamine B spectrophotometric assay; type: functional
[17] = test system: TK-10; assay: Growth inhibition against human TK-10 cells assessed as lethal concentration incubated for 48 hrs by sulforhodamine B spectrophotometric assay; type: functional; conditions: read-out: LC50 (the source's name)
[18] = test system: CCRF-CEM; assay: Growth inhibition of human CCRF-CEM cells incubated for 48 hrs by sulforhodamine B spectrophotometric assay; type: functional
[19] = test system: SN12C; assay: Growth inhibition against human SN12C cells assessed as lethal concentration incubated for 48 hrs by sulforhodamine B spectrophotometric assay; type: functional; conditions: read-out: LC50 (the source's name)
[20] = test system: HOP-92; assay: Growth inhibition against human HOP-92 cells assessed as lethal concentration incubated for 48 hrs by sulforhodamine B spectrophotometric assay; type: functional; conditions: read-out: LC50 (the source's name)
[21] = test system: CCRF-CEM; assay: Growth inhibition against human CCRF-CEM cells assessed as lethal concentration incubated for 48 hrs by sulforhodamine B spectrophotometric assay; type: functional; conditions: read-out: LC50 (the source's name)
[22] = test system: ACHN; assay: Growth inhibition against human ACHN cells assessed as total growth inhibitory concentration incubated for 48 hrs by sulforhodamine B spectrophotometric assay; type: functional
[23] = Acute toxicity in C57BL/6 mouse assessed as change in hemoglobin level at 20 mg/kg,ip administration observed after 22 days; type: organism-based; conditions: in vivo, 528 h, time 22 day
[24] = test system: K562; assay: Growth inhibition of human K562 cells incubated for 48 hrs by sulforhodamine B spectrophotometric assay; type: functional
[25] = test system: KB 3-1; assay: Induction of apoptosis in human KB 3-1 cells assessed as increase in BIP protein expression incubated for 24 hrs by Western blotting assay; type: functional, cell-based
[26] = test system: MDA-MB-231; assay: Growth inhibition against human MDA-MB-231 cells assessed as lethal concentration incubated for 48 hrs by sulforhodamine B spectrophotometric assay; type: functional; conditions: read-out: LC50 (the source's name)
[27] = test system: HOP-62; assay: Growth inhibition of human HOP-62 cells incubated for 48 hrs by sulforhodamine B spectrophotometric assay; type: functional
[28] = test system: BT-549; assay: Growth inhibition against human BT-549 cells assessed as total growth inhibitory concentration incubated for 48 hrs by sulforhodamine B spectrophotometric assay; type: functional
[29] = test system: SNB-75; assay: Growth inhibition against human SNB-75 cells assessed as total growth inhibitory concentration incubated for 48 hrs by sulforhodamine B spectrophotometric assay; type: functional
[30] = test system: SF-539; assay: Growth inhibition against human SF-539 cells assessed as lethal concentration incubated for 48 hrs by sulforhodamine B spectrophotometric assay; type: functional; conditions: read-out: LC50 (the source's name)
[31] = test system: Malme-3M; assay: Growth inhibition against human Malme-3M cells assessed as lethal concentration incubated for 48 hrs by sulforhodamine B spectrophotometric assay; type: functional; conditions: read-out: LC50 (the source's name)
[32] = test system: KB 3-1; assay: Induction of apoptosis in human KB 3-1 cells assessed as increase in BIP protein expression at 0.5 to 5 uM incubated for 3 hrs by Western blotting assay; type: functional, cell-based; conditions: dose 0.5-5 µM
[33] = test system: SK-MEL-2; assay: Growth inhibition against human SK-MEL-2 cells assessed as lethal concentration incubated for 48 hrs by sulforhodamine B spectrophotometric assay; type: functional; conditions: read-out: LC50 (the source's name)
[34] = test system: HCT-15; assay: Growth inhibition of human HCT-15 cells incubated for 48 hrs by sulforhodamine B spectrophotometric assay; type: functional
[35] = test system: NCI/ADR-RES; assay: Growth inhibition against human NCI/ADR-RES cells assessed as lethal concentration incubated for 48 hrs by sulforhodamine B spectrophotometric assay; type: functional; conditions: read-out: LC50 (the source's name)
[36] = test system: OVCAR-8; assay: Growth inhibition against human OVCAR-8 cells assessed as lethal concentration incubated for 48 hrs by sulforhodamine B spectrophotometric assay; type: functional; conditions: read-out: LC50 (the source's name)
[37] = test system: RPMI-8226; assay: Growth inhibition against human RPMI-8226 cells assessed as total growth inhibitory concentration incubated for 48 hrs by sulforhodamine B spectrophotometric assay; type: functional
[38] = test system: SR; assay: Growth inhibition of human SR cells incubated for 48 hrs by sulforhodamine B spectrophotometric assay; type: functional
[39] = test system: CAKI-1; assay: Growth inhibition against human CAKI-1 cells assessed as total growth inhibitory concentration incubated for 48 hrs by sulforhodamine B spectrophotometric assay; type: functional
[40] = test system: MDA-MB-468; assay: Growth inhibition against human MDA-MB-468 cells assessed as lethal concentration incubated for 48 hrs by sulforhodamine B spectrophotometric assay; type: functional; conditions: read-out: LC50 (the source's name)
[41] = test system: BT-549; assay: Anticancer activity against human BT-549 cells assessed as cell growth at 10 uM incubated for 48 hrs by sulforhodamine B assay; type: functional; conditions: read-out: Activity
[42] = test system: SK-OV-3; assay: Growth inhibition against human SK-OV-3 cells assessed as total growth inhibitory concentration incubated for 48 hrs by sulforhodamine B spectrophotometric assay; type: functional
[43] = test system: ACHN; assay: Growth inhibition of human ACHN cells incubated for 48 hrs by sulforhodamine B spectrophotometric assay; type: functional
[44] = test system: SN12C; assay: Growth inhibition of human SN12C cells incubated for 48 hrs by sulforhodamine B spectrophotometric assay; type: functional
[45] = test system: UO-31; assay: Growth inhibition against human UO-31 cells assessed as total growth inhibitory concentration incubated for 48 hrs by sulforhodamine B spectrophotometric assay; type: functional

Question: What does the source list for O=C1C2=C(C(=O)c3c(O)cccc31)C(c1ccco1)c1sc(=O)[nH]c1S2 (stereo not given)?
Answer: GI50 [1]: 2.21 µM; CC50 [2]: > 100 µM; Activity [3]: 23.46%; IC50 [4]: 28.2 µM; CC50 [5]: 5.81 µM; CC50 [6]: 26.1 µM; growth at 10 µM [7]: -93.9%; Activity [8]: 44.3%; Activity [9]: 32.6%; Activity [10]: 31.21%; CC50 [11]: > 100 µM; GI50 [12]: 1.59 µM; CC50 [13]: > 100 µM; TGI [14]: 8.97 µM; TGI [15]: 3.88 µM; TGI [16]: 6.56 µM; CC50 [17]: 56.4 µM; GI50 [18]: 3.29 µM; CC50 [19]: 6.99 µM; CC50 [20]: 32.5 µM; CC50 [21]: > 100 µM; TGI [22]: 16.1 µM; Activity [23]: Non-Toxic; GI50 [24]: 2.84 µM; Activity [25]: Dose-Dependent Effect; CC50 [26]: > 100 µM; GI50 [27]: 2.04 µM; TGI [28]: 3.19 µM; TGI [29]: 7.61 µM; CC50 [30]: 7.05 µM; CC50 [31]: 4.75 µM; Activity [32]: inactive; CC50 [33]: 52.9 µM; GI50 [34]: 1.75 µM; CC50 [35]: > 100 µM; CC50 [36]: 36.2 µM; TGI [37]: 9.83 µM; GI50 [38]: 3.05 µM; TGI [39]: 13.9 µM; CC50 [40]: > 100 µM; growth at 10 µM [41]: -96.8%; TGI [42]: 29.6 µM; GI50 [43]: 4.08 µM; GI50 [44]: 1.74 µM; TGI [45]: 13.5 µM
